Legend:
Assay type in all cases: cell-based
KRas [1] = molecular target: T1, KRas (Homo sapiens, UniProt P01116, G12C); test: KRas degradation in H2030 cells by Western blot (data of Table 5); set-up: host or cells: NCI-H2030; details: H2030 cells serum starved 24 hours, KRas immunoblot; for H2030 Degradation at 0.3 uM: treated 24 hours with 0.3 uM; for H2030 Degradation at 1 uM: treated 24 hours with 1 uM; for H2030 Degradation at 3 uM: treated 24 hours with 3 uM
Description: Cell Lines, Antibodies, and Reagents. NCI-H2030 (CRL-5914) and SW1573 (CRL-2170) cells were purchased from ATCC. Both cell lines are homozygous for the G12C mutation in KRas. NCI-H2030 cells were cultured in RPMI-1640 medium containing 1% penicillin-streptomycin and 10% fetal bovine serum (FBS). SW1573 cells were cultured in DMEM containing 1% penicillin-streptomycin and 10% FBS. The KRas detection antibody (Cat. No. LS-C175665) was purchased from LifeSpan Biosciences and was used at a dilution of 1:2000. GAPDH was detected using an antibody purchased from Cell Signaling Technology (Cat. No. 5174) and was diluted 1:3000. Secondary anti-mouse and anti-rabbit detection antibodies were purchased from Cell Signaling Technology (Cat. Nos. 7076 and 7074, respectively).
Compound Treatment and Western Blotting of the Data of Table 5. H2030 cells in 12-well plates were serum starved for 24 hours, and then treated with 0.3 uM, 1 uM, and 3 uM of the indicated bifunctional compound, for 24 hours. Cells were lysed in a Cell Signaling Technology Cell Lysis Buffer (Cat. No. #9803) supplemented with protease inhibitors, and proteins were separated by SDS-PAGE. KRas was detected by immunoblotting using the LSBio antibody (Cat. No. LS-C175665).
DC50 is the half-maximal degradation concentration—i.e., the concentration at which 50% degradation is observed. DMax is the maximum degradation efficacy is achieved—i.e., the maximal degradation observed) degradation data.

KRas^G12C [2] = molecular target: T2, KRas^G12C (Homo sapiens, UniProt P01116, G12C); test: Western blot of KRas G12C degradation and gel shift (FIGS. 2A and 2B); details: for covalent modification of KRas^G12C, as seen by the gel shift: Western blot gel shift, FIGS. 2A and 2B; for degrader potency shown by Western blot: FIG. 2A / FIG. 2B
T2 construct: endogenous in cells

KRas [3] = molecular target: T1, KRas; test: KRas degradation in SW1573 cells by Western blot, normalized to GAPDH (data of Table 14)
Summary of the method: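 SW1573 cells, homozygous for the KRas G12C mutation and maintained in DMEM with 10% FBS and 1% penicillin-streptomycin, were seeded in 12-well plates, allowed to attach overnight at 37° C. under 5% CO2, then serum-starved for 24 hours before compound exposure. KRas levels were measured by Western blot, normalized to GAPDH, and compared with DMSO controls to give percent degradation, DC50 and Dmax.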

KRas^G12C [4] = molecular target: T2, KRas^G12C; test: Western blot mobility shift of KRas after treating cells with bifunctional compound (FIGS. 2A and 2B); details: for KRas degrader activity (representative Western blot): FIG. 2A / FIG. 2B; for covalent modification of KRas seen by gel shift: upper band is KRas and the bifunctional compound, lower band is KRas alone
Description: FIGS. 2A and 2B show the result of treating cells with either a bifunctional compound alone or a bifunctional compound and an E3 ubiquitin ligase inhibitor, and then detecting the KRas protein on the gel. The mobility shift of KRas detection on the gel illustrates that the bifunctional compounds covalently modify KRas. The upper band is KRas and the bifunctional compound, while the lower band is KRas alone.

KRas [5] = molecular target: T1, KRas; test: KRas degradation in NCI-H2030 cells by Western blot, normalized to GAPDH (data of Table 14); set-up: host or cells: NCI-H2030
Summary of the method: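 After overnight adherence and 24 h without FBS, compounds added at 0.3, 1 or 3 μM (0.1% DMSO) for 24 h (VHL-based) or 72 h (others). Western blot of RIPA lysates, KRas signal over GAPDH relative to DMSO; DC50 and DMax derived, or <25% scored visually.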

H2030 Degradation at 0.3 uM (KRas [1])	H2030 Degradation at 1 uM (KRas [1])	H2030 Degradation at 3 uM (KRas [1])	covalent modification of KRas^G12C, as seen by the gel shift (KRas^G12C [2])	degrader potency shown by Western blot (KRas^G12C [2])	KRas degrader activity (representative Western blot) (KRas^G12C [4])	covalent modification of KRas seen by gel shift (KRas^G12C [4])	SMILES	also measured
C (C < 25)	C (C < 25)	C (C < 25)					CCC(=O)N1CCN(c2nc(NCCC(=O)N(C)CCOCCOCCOCCOCCOCC(=O)N[C@H](C(=O)N3C[C@H](O)C[C@H]3C(=O)N[C@@H](C)c3ccc(-c4scnc4C)cc3)C(C)(C)C)nc3c(F)c(-c4cc(O)cc5ccccc45)c(Cl)cc23)CC1 [compound 7, (2S,4R)-1-((2S)-2-(tert-butyl)-24-((6-chloro-8-fluoro-7-(3-hydroxynaphthalen-1-yl)-4-(4-propionylpiperazin-1-yl)quinazolin-2-yl)amino)-21-methyl-4,22-dioxo-6,9,12,15,18-pentaoxa-3,21-diazatetracosanoyl)-4-hydroxy-N-((1S)-1-(4-(4-methyl-5H-114-thiazol-5-yl)phenyl)ethyl) pyrrolidine-2-carboxamide]	
C (C < 25)	C (C < 25)	C (C < 25)					CCC(=O)N1CCN(c2nc(NCCC(=O)N(C)CCOCCOCCOCCNc3cccc4c3C(=O)N(C3CCC(=O)NC3=O)C4=O)nc3c(F)c(-c4cc(O)cc5ccccc45)c(Cl)cc23)CC1 (stereo not drawn) [compound 8, 3-((6-chloro-8-fluoro-7-(3-hydroxynaphthalen-1-yl)-4-(4-propionylpiperazin-1-yl)quinazolin-2-yl)amino)-N-(2-(2-(2-(2-((2-(2,6-dioxopiperidin-3-yl)-1,3-dioxoisoindolin-4-yl)amino)ethoxy)ethoxy)ethoxy)ethyl)-N-methylpropanamide]	
C (C < 25)	C (C < 25)	C (C < 25)					CCC(=O)N1CCN(c2nc(NCCC(=O)N(C)CCOCCOCCOCC(=O)N[C@H](C(=O)N3C[C@H](O)C[C@H]3C(=O)N[C@@H](C)c3ccc(-c4scnc4C)cc3)C(C)(C)C)nc3c(F)c(-c4cc(O)cc5ccccc45)c(Cl)cc23)CC1 [compound 9, (2S,4R)-1-((S)-2-(tert-butyl)-18-((6-chloro-8-fluoro-7-(3-hydroxynaphthalen-1-yl)-4-(4-propionylpiperazin-1-yl)-5H-312-quinazolin-2-yl)amino)-15-methyl-4,16-dioxo-6,9,12-trioxa-3,15-diazaoctadecanoyl)-4-hydroxy-N-((S)-1-(4-(4-methyl-312-thiazol-5-yl)phenyl)ethyl) pyrrolidine-2-carboxamide]	
C (C < 25)	C (C < 25)	C (C < 25)					CCC(=O)N1CCN(c2nc(NCCC(=O)N(C)CCOCCOCCOCCOCCOc3ccc4c(c3)CN(C3CCC(=O)NC3=O)C4=O)nc3c(F)c(-c4cc(O)cc5ccccc45)c(Cl)cc23)CC1 (stereo not drawn) [compound 10, 3-((6-chloro-8-fluoro-7-(3-hydroxynaphthalen-1-yl)-4-(4-propionylpiperazin-1-yl)quinazolin-2-yl)amino)-N-(14-((2-(2,6-dioxopiperidin-3-yl)-1-oxoisoindolin-5-yl)oxy)-3,6,9,12-tetraoxatetradecyl)-N-methylpropanamide]	
			covalently modify KRas^G12C	potent degrader	potent degrader	covalently modify KRas^G12C	C=CC(=O)N1CCN(c2nc(O[C@H](C)CN3CCC(OCCOCCOCC(=O)N[C@H](C(=O)N4C[C@H](O)C[C@H]4C(=O)N[C@@H](C)c4ccc(-c5scnc5C)cc4)C(C)(C)C)CC3)nc3c(F)c(-c4cc(O)cc5ccccc45)c(Cl)cc23)CC1 [compound 399, (2S,4R)-1-((2S)-2-(2-(2-(2-((1-((2R)-2-((4-(4-acryloylpiperazin-1-yl)-6-chloro-8-fluoro-7-(3-hydroxynaphthalen-1-yl)quinazolin-2-yl)oxy)propyl)piperidin-4-yl)oxy)ethoxy)ethoxy)acetamido)-3,3-dimethylbutanoyl)-4-hydroxy-N-((S)-1-(4-(4-methylthiazol-5-yl)phenyl)ethyl)pyrrolidine-2-carboxamide]	DC50 (KRas [3]; SW1573): < 100 nM; Dmax (KRas [3]; SW1573): 35 to 70%; Percent Degradation at Indicated Concentration (μM) (KRas [3]; SW1573, 0.03 μM): C (Percent Degradation: C ≤ 35); Percent Degradation at Indicated Concentration (μM) (KRas [3]; SW1573, 0.1 μM): B (35 < B < 70); Percent Degradation at Indicated Concentration (μM) (KRas [3]; SW1573, 0.3 μM): B (35 < B < 70); Percent Degradation at Indicated Concentration (μM) (KRas [3]; SW1573, 1 μM): B (35 < B < 70); Percent Degradation at Indicated Concentration (μM) (KRas [3]; SW1573, 3 μM): B (35 < B < 70); Percent Degradation at Indicated Concentration (μM) (KRas [3]; SW1573, 10 μM): C (Percent Degradation: C ≤ 35); DC50 (KRas [5]; H2030): ≥ 1000 nM; Percent Degradation at Indicated Concentration (μM) (KRas [5]; H2030, 0.03 μM): C (Percent Degradation: C ≤ 35); Percent Degradation at Indicated Concentration (μM) (KRas [5]; H2030, 0.1 μM): C (Percent Degradation: C ≤ 35); Percent Degradation at Indicated Concentration (μM) (KRas [5]; H2030, 0.3 μM): C (Percent Degradation: C ≤ 35); Percent Degradation at Indicated Concentration (μM) (KRas [5]; H2030, 1 μM): C (Percent Degradation: C ≤ 35); Percent Degradation at Indicated Concentration (μM) (KRas [5]; H2030, 3 μM): B (35 < B < 70); Percent Degradation at Indicated Concentration (μM) (KRas [5]; H2030, 10 μM): C (Percent Degradation: C ≤ 35); Dmax (KRas [5]; NCI-H2030): 35 to 70%
			covalently modify KRas^G12C	less potent degrader	less active degrader	covalently modify KRas^G12C	C=CC(=O)N1CCN(c2nc(O[C@H](C)CN3CCN(CC4CCN(c5ccc6c(c5)C(=O)N(C5CCC(=O)NC5=O)C6=O)CC4)CC3)nc3c(F)c(-c4cc(O)cc5ccccc45)c(Cl)cc23)CC1 (stereo partly drawn) [compound 432, 5-(4-((4-((2R)-2-((4-(4-acryloylpiperazin-1-yl)-6-chloro-8-fluoro-7-(3-hydroxynaphthalen-1-yl)quinazolin-2-yl)oxy)propyl)piperazin-1-yl)methyl)piperidin-1-yl)-2-(2,6-dioxopiperidin-3-yl)isoindoline-1,3-dione]	Percent Degradation at Indicated Concentration (μM) (KRas [3]; SW1573 cells, 0.1 μM): C (Percent Degradation: C ≤ 35); Percent Degradation at Indicated Concentration (μM) (KRas [3]; SW1573 cells, 0.3 μM): C (Percent Degradation: C ≤ 35); Percent Degradation at Indicated Concentration (μM) (KRas [3]; SW1573 cells, 1 μM): C (Percent Degradation: C ≤ 35)

From patent publication US12552783B2, “Modulators of proteolysis and associated methods of use” (Arvinas Operations, Inc., priority 2018, dated 2026)
